Measurements as given in patent publication US20120083522A1, “MODULATION OF INFLAMMATORY RESPONSES BY FACTOR XI” (Isis Pharmaceuitcals, inc., priority 2009, published 2012).

What was measured:
human Factor XI mRNA [1] = assay: Dose-dependent inhibition and IC50 in HepG2 cells, electroporation (Example 15); type: cell-based
Procedure, shortened: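 HepG2 cells were electroporated with antisense oligonucleotide at 123.46, 370.37, 1,111.11, 3,333.33 and 10,000 nM and harvested after about 16 h. Factor XI mRNA was quantified by qRT-PCR (primer probe set RTS 2966), normalized to RIBOGREEN total RNA, and expressed as percent inhibition versus untreated cells.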

Factor XI mRNA [2] = assay: Cynomolgus monkeys, 25 mg/kg: liver Factor XI RNA analysis (Example 30); type: in vivo; settings: 25 mg/kg s.c.; day 55; liver
Procedure, shortened: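 Cynomolgus monkeys (2 male, 2 female per group) received antisense oligonucleotide at 25 mg/kg subcutaneously, three times weekly in week 1, then twice weekly in weeks 2–8. Liver Factor XI mRNA was quantified by real-time PCR on day 55 and expressed as percent inhibition relative to a PBS-dosed group.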

Factor XI protein = assay: Cynomolgus monkeys: plasma Factor XI protein ELISA (Example 30); type: in vivo; settings: 25 mg/kg s.c., plasma ELISA
Procedure, shortened: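 Monkeys (2 male, 2 female per group) dosed s.c. with antisense oligonucleotide 25 mg/kg three times in week 1, then twice weekly to week 8; PBS control on same schedule. Plasma (1:50) assayed by sandwich ELISA with polyclonal anti-Factor XI capture and peroxidase-conjugated detection, o-phenylenediamine read at 490 nm; expressed as percent reduction versus PBS.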

Factor XI mRNA [3] = assay: Cynomolgus monkeys, escalating doses: liver Factor XI RNA analysis (Example 29); type: in vivo; settings: escalating doses 5, 10, 25 mg/kg s.c. over 12 weeks, day 85
Procedure: Groups, each consisting of two male and three female monkeys, were injected subcutaneously with ISIS 416838, ISIS 416850, ISIS 416858, ISIS 416864, or ISIS 417002 in escalating doses. Antisense oligonucleotide was administered to the monkeys at 5 mg/kg three times per a week for week 1; 5 mg/kg twice per week for weeks 2 and 3; 10 mg/kg three times per week for week 4; 10 mg/kg twice per week for weeks 5 and 6; 25 mg/kg three times per week for week 7; and 25 mg/kg twice per week for weeks 8, 9, 10, 11, and 12. One control group, consisting of two male and three female monkeys, was injected subcutaneously with PBS according to the same dosing regimen. An additional experimental group, consisting of two male and three female monkeys, was injected subcutaneously with ISIS 416850 in a chronic, lower dose regimen. Antisense oligonucleotide was administered to the monkeys at 5 mg/kg three times per week for week 1; 5 mg/kg twice per week for week 2 and 3; 10 mg/kg three times per week for week 4; and 10 mg/kg twice per week for weeks 5 to 12. Body weights were measured weekly. Blood samples were collected 14 days and 5 days before the start of treatment and subsequently once per week for Factor XI protein activity analysis in plasma and measurement of various hematologic factors. On day 85, the monkeys were euthanized by exsanguination while under deep anesthesia, and organs harvested for further analysis.
On day 85, RNA was extracted from liver tissue for real-time PCR analysis of Factor XI using primer probe set LTS00301 (forward primer sequence […], designated herein as SEQ ID NO 271; reverse primer sequence […], designated herein as SEQ ID NO: 272; and probe sequence TGCAGGCACAGCATCCCAGTGTTCTX, wherein X is a fluorphore, designated herein as SEQ ID NO. 273). Results are presented as percent inhibition of Factor XI, relative to PBS control.

human Factor XI mRNA [4] = assay: Dose-dependent inhibition in HepG2 cells, electroporation (Example 5); type: cell-based; settings: approx. 16 h, relative to untreated control cells
Procedure: The gapmers were also transfected via electroporation and their dose dependent inhibition of human Factor XI mRNA was measured. Cells were plated at a density of 20,000 cells per well and transfected via electroporation with 625 nM, 1250 nM, 2500 nM, 5,000 nM, 10,000 nM, and 20,000 nM concentrations of antisense oligonucleotide, as specified in Table 12. After a treatment period of approximately 16 hours, RNA was isolated from the cells and human Factor XI mRNA levels were measured by quantitative real-time PCR. Human Factor XI primer probe set RTS 2966 was used to measure mRNA levels. Factor XI mRNA levels were adjusted according to total RNA content, as measured by RIBOGREEN®. Results are presented as percent inhibition of human Factor XI, relative to untreated control cells.

Substance	percent inhibition of Factor XI mRNA (human Factor XI mRNA [1]; electroporation, 123.47 nM) [%]	percent inhibition of Factor XI mRNA (human Factor XI mRNA [1]; electroporation, 370.37 nM) [%]	percent inhibition of Factor XI mRNA (human Factor XI mRNA [1]; electroporation, 1,111.11 nM) [%]	percent inhibition of Factor XI mRNA (human Factor XI mRNA [1]; electroporation, 3,333.33 nM) [%]	percent inhibition of Factor XI mRNA (human Factor XI mRNA [1]; electroporation, 10,000.0 nM) [%]	% inhibition of Factor XI mRNA in liver relative to the PBS control (Factor XI mRNA [2]) [%]	Inhibition of Factor XI protein relative to the PBS control (Factor XI protein; Day 10) [%]	Inhibition of Factor XI protein relative to the PBS control (Factor XI protein; Day 17) [%]	Inhibition of Factor XI protein relative to the PBS control (Factor XI protein; Day 24) [%]	Inhibition of Factor XI protein relative to the PBS control (Factor XI protein; Day 31) [%]	Inhibition of Factor XI protein relative to the PBS control (Factor XI protein; Day 38) [%]	Inhibition of Factor XI protein relative to the PBS control (Factor XI protein; Day 45) [%]	Inhibition of Factor XI protein relative to the PBS control (Factor XI protein; Day 52) [%]	% inhibition of Factor XI mRNA in liver relative to the PBS control (Factor XI mRNA [3]) [%]	percent inhibition of human Factor XI mRNA (human Factor XI mRNA [4]; 625 nM) [%]	percent inhibition of human Factor XI mRNA (human Factor XI mRNA [4]; 1250 nM) [%]	percent inhibition of human Factor XI mRNA (human Factor XI mRNA [4]; 2500 nM) [%]	percent inhibition of human Factor XI mRNA (human Factor XI mRNA [4]; 5000 nM) [%]	percent inhibition of human Factor XI mRNA (human Factor XI mRNA [4]; 10000 nM) [%]	percent inhibition of human Factor XI mRNA (human Factor XI mRNA [4]; 20000 nM) [%]	further results
416850 (antisense TGCACAGTTTCTGGCAGGCC; 5-10-5 gapmer, wing sugar chemistry not given here, further chemistry not given here) [compound 416850]	0	12	36	74	73	68	20	31	38	52	51	53	53	84	69	80	87	90	93	96	Inhibition of Factor XI protein relative to the PBS control (Factor XI protein; Day 55): 58%; Inhibition of Factor XI protein relative to the PBS control (Factor XI protein; Day −5): 0%; Inhibition of Factor XI protein relative to the PBS control (Factor XI protein; Day −14): 0%
416858 (antisense ACGGCATTGGTGCACAGTTT; 5-10-5 gapmer, wing sugar chemistry not given here, further chemistry not given here) [compound 416858]	0	27	36	64	70	89	36	49	62	68	74	79	81	90	65	77	87	89	93	93	Inhibition of Factor XI protein relative to the PBS control (Factor XI protein; Day 55): 81%; Inhibition of Factor XI protein relative to the PBS control (Factor XI protein; Day −5): 0%; Inhibition of Factor XI protein relative to the PBS control (Factor XI protein; Day −14): 4%
417002 (antisense GGTGCACAGTTTCTGGCAGG; 2-13-5 gapmer, wing sugar chemistry not given here, further chemistry not given here) [compound 417002]	–	–	–	–	–	–	–	–	–	–	–	–	–	57	59	72	86	90	94	96	–
